Laboratory results from patent publication US4735954A, “Anti-rheumatic agent” (priority 1985, dated 1988).

Tests used:
[1] = disclosed in earlier patents; cited from earlier work
[2] = system: Adjuvant-induced Secondary Inflammation; assay: adjuvant-induced arthritis in rats, secondary inflammation; type: in vivo, female Wistar rats
Description: (§1) Eight female Wistar rats in each group, weighing 140-200 g were used. The arthritis was induced by intradermal injection of Mycobacterium butyricum suspended in liquid paraffin (0.6 mg/0.1 ml) as the adjuvant to tail. The change in volume of both legs due to the formation of edema was measured 12, 16 and 19 days after the adjuvant challenge. In addition, a severity of the secondary inflammation observed in auricles, paws, legs and tail was graded into the degrees of 0-4.

[3] = system: Arthus reaction (type III allergic reaction); conditions: own earlier publication; cited from earlier work
[4] = system: type I (immediate type) allergic reaction; conditions: own earlier publications; cited from earlier work
[5] = system: Adjuvant-induced Edema in Left Legs; assay: adjuvant-induced arthritis in rats, edema in left legs; type: in vivo, female Wistar rats
Description: as §1

acute toxicity in mice = conditions: mouse, in vivo
rats and mice = assay: toxicological studies (acute, subacute, chronic); type: in vivo; conditions: acute (several routes), subacute (oral, one month), chronic (oral, six months)
acute toxicity in rats = conditions: rat, in vivo
[6] = system: adjuvant-induced experimental arthritis; assay: adjuvant-induced experimental arthritis in rats (overall); type: in vivo; conditions: oral, 20 mg/kg once or 10 mg/kg twice every day
Description: as §1

[7] = system: Adjuvant-induced Edema in Right Legs; assay: adjuvant-induced arthritis in rats, edema in right legs; type: in vivo, female Wistar rats
Description: as §1

[8] = disclosed in earlier patents; cited from earlier work; remark: listed apart in the source
[9] = 10 × 2 mg/kg/day p.o., 12th day
[10] = 10 × 2 mg/kg/day p.o., 16th day
[11] = 10 × 2 mg/kg/day p.o., 19th day

For `CC(C)C(=O)c1c(C(C)C)nn2ccccc12` [KC-404, 3-isobutyryl-2-isopropylpyrazalo[1,5-a]pyridine], the bronchodilating effect [1] is listed as “bronchodilating”, the “Inflammation Score” value ([2]; 20 mg/kg/day p.o., 16th day, control 11.8) is listed as 6.6 and the “Inflammation Score” value ([2]; 20 mg/kg/day p.o., 19th day, control 17.0) is listed as 10.3. For the same compound, the “Inflammation Score” value ([2]; 10 × 2 mg/kg/day p.o., 16th day, control 11.8) was 9.0, the “Inflammation Score” value ([2]; 10 × 2 mg/kg/day p.o., 19th day, control 17.0) was 11.4 and the “effect on the Arthus reaction (type III allergic reaction)” value [3] was “inhibits”. The “effect on type I allergic reaction” value [4] was “inhibitory effect”, the “Inhibition of edema in left legs” value ([5]; 20 mg/kg/day p.o., 12th day) was 71.7% and the “Inhibition of edema in left legs” value ([5]; 20 mg/kg/day p.o., 16th day) was 79.9%. The “Inhibition of edema in left legs” value ([5]; 20 mg/kg/day p.o., 19th day) was 61.1%, the “Inhibition of edema in left legs” value [5, 9] was 50.2% and the “Inhibition of edema in left legs” value [5, 10] was 28.6%. The “Inhibition of edema in left legs” value [5, 11] was 41.9%, the LD50 (acute toxicity in mice; ip, Female) was 500 mg/kg and the LD50 (acute toxicity in mice; ip, Male) was 460 mg/kg. For the same compound, the LD50 (acute toxicity in mice; iv, Female) was 146 mg/kg, the LD50 (acute toxicity in mice; iv, Male) was 160 mg/kg and the LD50 (acute toxicity in mice; po, Female) was 1860 mg/kg. For the same compound, the LD50 (acute toxicity in mice; po, Male) was 1880 mg/kg, the LD50 (acute toxicity in mice; sc, Female) was 3100 mg/kg and the LD50 (acute toxicity in mice; sc, Male) was 3000 mg/kg. For the same compound, the toxicity (rats and mice) was “low in toxicity”, the LD50 (acute toxicity in rats; ip, Female) was 419 mg/kg and the LD50 (acute toxicity in rats; ip, Male) was 500 mg/kg. The LD50 (acute toxicity in rats; iv, Female) was 42.5 mg/kg, the LD50 (acute toxicity in rats; iv, Male) was 43.2 mg/kg and the LD50 (acute toxicity in rats; po, Female) was 1400 mg/kg. The LD50 (acute toxicity in rats; sc, Female) was 1370 mg/kg, the LD50 (acute toxicity in rats; sc, Male) was 1450 mg/kg and the “inhibition of the production of adjuvant-induced experimental arthritis” value [6] was “markedly inhibits”. The “Inhibition of edema in right legs” value ([7]; 20 mg/kg/day p.o., 12th day) was 44.4%, the “Inhibition of edema in right legs” value ([7]; 20 mg/kg/day p.o., 16th day) was 80.8% and the “Inhibition of edema in right legs” value ([7]; 20 mg/kg/day p.o., 19th day) was 53.1%. The “Inhibition of edema in right legs” value [7, 9] was 19.8%, the “Inhibition of edema in right legs” value [7, 10] was 56.6% and the “Inhibition of edema in right legs” value [7, 11] was 39.9%. The cerebral vasodilating effect [8] was “Cerebral vasodilating”.
With `C[C@]12CCC(=O)C=C1CC[C@@H]1[C@@H]2[C@@H](O)C[C@@]2(C)[C@H]1CC[C@]2(O)C(=O)CO` [Hydrocortisone, reference compound] the “Inflammation Score” value ([2]; 5 mg/kg/day p.o., 16th day, control 11.8) was 8.1, the “Inflammation Score” value ([2]; 5 mg/kg/day p.o., 19th day, control 17.0) was 9.3 and the “Inhibition of edema in left legs” value ([5]; 5 mg/kg/day p.o., 12th day) was 57.0%. The “Inhibition of edema in left legs” value ([5]; 5 mg/kg/day p.o., 16th day) was 53.1%, the “Inhibition of edema in left legs” value ([5]; 5 mg/kg/day p.o., 19th day) was 54.7% and the “Inhibition of edema in right legs” value ([7]; 5 mg/kg/day p.o., 12th day) was 90.9%. For the same compound, the “Inhibition of edema in right legs” value ([7]; 5 mg/kg/day p.o., 16th day) was 60.1% and the “Inhibition of edema in right legs” value ([7]; 5 mg/kg/day p.o., 19th day) was 57.8%.
